The test system of this series is CCRIS mutagenicity, Ames/micronucleus/aberration tests. As to the kind of experiment: CCRIS mutagenicity studies.
Setting [1] is: Test System: AMES SALMONELLA TYPHIMURIUM, Strain/Indicator: TA98, Metabolic Activation: NONE, Method: PREINCUBATION
Where [2] appears, read: Test System: AMES SALMONELLA TYPHIMURIUM, Strain/Indicator: TA100, Metabolic Activation: NONE, Method: PREINCUBATION
[3] abbreviates: Test System: AMES SALMONELLA TYPHIMURIUM, Strain/Indicator: TA1535, Metabolic Activation: NONE, Method: PREINCUBATION

Molecules are shown by their SMILES. Calls of active or inactive are those of the source. No rule for the calls is given here.

Turning to `NC(Cc1ccc(F)cc1)C(=O)O` (stereo unspecified), the mutagenic call (Test System: AMES SALMONELLA TYPHIMURIUM, Strain/Indicator: TA98, Metabolic Activation: HAMSTER, LIVER, S-9, AROCLOR 1254 (10%), Method: PREINCUBATION) was “inactive; negative”; the mutagenic call under setting [1] is “inactive; negative”; the mutagenic call (Test System: AMES SALMONELLA TYPHIMURIUM, Strain/Indicator: TA98, Metabolic Activation: RAT, LIVER, S-9, AROCLOR 1254 (10%), Method: PREINCUBATION) was “inactive; negative”; the mutagenic call (Test System: AMES SALMONELLA TYPHIMURIUM, Strain/Indicator: TA100, Metabolic Activation: HAMSTER, LIVER, S-9, AROCLOR 1254 (10%), Method: PREINCUBATION) was “inactive; negative”; the mutagenic call under setting [2] is “inactive; negative”; the mutagenic call (Test System: AMES SALMONELLA TYPHIMURIUM, Strain/Indicator: TA100, Metabolic Activation: RAT, LIVER, S-9, AROCLOR 1254 (10%), Method: PREINCUBATION) was “inactive; negative”. For the same molecule, the mutagenic call by setting is: (Test System: AMES SALMONELLA TYPHIMURIUM, Strain/Indicator: TA1535, Metabolic Activation: HAMSTER, LIVER, S-9, AROCLOR 1254 (10%), Method: PREINCUBATION) “inactive; negative”; under setting [3], “inactive; negative”; (Test System: AMES SALMONELLA TYPHIMURIUM, Strain/Indicator: TA1535, Metabolic Activation: RAT, LIVER, S-9, AROCLOR 1254 (10%), Method: PREINCUBATION) “inactive; negative”; (Test System: AMES SALMONELLA TYPHIMURIUM, Strain/Indicator: TA1537, Metabolic Activation: HAMSTER, LIVER, S-9, AROCLOR 1254 (10%), Method: PREINCUBATION) “inactive; negative”; (Test System: AMES SALMONELLA TYPHIMURIUM, Strain/Indicator: TA1537, Metabolic Activation: NONE, Method: PREINCUBATION) “inactive; negative”; (Test System: AMES SALMONELLA TYPHIMURIUM, Strain/Indicator: TA1537, Metabolic Activation: RAT, LIVER, S-9, AROCLOR 1254 (10%), Method: PREINCUBATION) “inactive; negative”.
For `O=C(O)CNC(=O)c1ccc([N+](=O)[O-])cc1`, the mutagenic call runs as follows: (Test System: AMES SALMONELLA TYPHIMURIUM, Strain/Indicator: TA98, Metabolic Activation: HAMSTER, LIVER, S-9, AROCLOR 1254 (30%), Method: PREINCUBATION) “inactive; negative”; under setting [1], “active; positive”; (Test System: AMES SALMONELLA TYPHIMURIUM, Strain/Indicator: TA98, Metabolic Activation: RAT, LIVER, S-9, AROCLOR 1254 (30%), Method: PREINCUBATION) “inactive; negative”; (Test System: AMES SALMONELLA TYPHIMURIUM, Strain/Indicator: TA100, Metabolic Activation: HAMSTER, LIVER, S-9, AROCLOR 1254 (5, 10 OR 30%), Method: PREINCUBATION) “inactive; negative”; under setting [2], “active; positive”; (Test System: AMES SALMONELLA TYPHIMURIUM, Strain/Indicator: TA100, Metabolic Activation: RAT, LIVER, S-9, AROCLOR 1254 (5, 10 OR 30%), Method: PREINCUBATION) “inactive; negative”. The mutagenic call is, setting by setting: (Test System: AMES SALMONELLA TYPHIMURIUM, Strain/Indicator: TA1535, Metabolic Activation: HAMSTER, LIVER, S-9, AROCLOR 1254 (5, 10 OR 30%), Method: PREINCUBATION) “inactive; negative”; under setting [3], “inactive; negative”; (Test System: AMES SALMONELLA TYPHIMURIUM, Strain/Indicator: TA1535, Metabolic Activation: RAT, LIVER, S-9, AROCLOR 1254 (5, 10 OR 30%), Method: PREINCUBATION) “inactive; negative”; (Test System: AMES SALMONELLA TYPHIMURIUM, Strain/Indicator: TA1538, Metabolic Activation: NONE, Method: PREINCUBATION) “active; positive”.
Take `OCc1c2ccccc2c2ccc3cccc4ccc1c2c43`: the mutagenic call was “active; positive” (Test System: AMES SALMONELLA TYPHIMURIUM, Strain/Indicator: TA98, Metabolic Activation: RAT, LIVER, CYTOSOL AND PAPS-GENERATING SYSTEM, Method: PREINCUBATION); “active; positive” (Test System: AMES SALMONELLA TYPHIMURIUM, Strain/Indicator: TA100, Metabolic Activation: RAT, LIVER, CYTOSOL AND PAPS-GENERATING SYSTEM, Method: PREINCUBATION); “active; positive” (Test System: AMES SALMONELLA TYPHIMURIUM, Strain/Indicator: TA100, Metabolic Activation: RAT, LIVER, S-9, AROCLOR 1254, Method: STANDARD PLATE); “active; positive” (Test System: AMES SALMONELLA TYPHIMURIUM, Strain/Indicator: TA1538, Metabolic Activation: RAT, LIVER, S-9, AROCLOR 1254, Method: STANDARD PLATE); “active; positive” (Test System: CHINESE HAMSTER V-79, Strain/Indicator: V-79 (HGPRT)/6-THIOGUANINE, Metabolic Activation: NONE); “active; positive” (Test System: CHINESE HAMSTER V-79, Strain/Indicator: V-79 (NA/K-ATPASE)/OUABAIN, Metabolic Activation: NONE). In addition, where the note is “Test System: CHINESE HAMSTER V-79, Strain/Indicator: V-79/OUABAIN, Metabolic Activation: HAMSTER, EMBRYO, CELL-MEDIATED, Method: STANDARD PLATE”, the mutagenic call was “active; positive”.
In the case of `CC(=O)OCc1c(O)c(C(=O)O)c(C)c2c1OC(=O)c1c(C)cc(O)c(C=O)c1O2`, the mutagenic call by setting is: under setting [1], “inactive; negative”; (Test System: AMES SALMONELLA TYPHIMURIUM, Strain/Indicator: TA98, Metabolic Activation: NONE, Method: STANDARD PLATE) “inactive; negative”; (Test System: AMES SALMONELLA TYPHIMURIUM, Strain/Indicator: TA98, Metabolic Activation: RAT, LIVER, S-9, Method: PREINCUBATION) “inactive; negative”; (Test System: AMES SALMONELLA TYPHIMURIUM, Strain/Indicator: TA98, Metabolic Activation: RAT, LIVER, S-9, Method: STANDARD PLATE) “inactive; negative”; under setting [2], “active; positive”; (Test System: AMES SALMONELLA TYPHIMURIUM, Strain/Indicator: TA100, Metabolic Activation: NONE, Method: STANDARD PLATE) “inactive; negative”. The mutagenic call is “active; positive” (Test System: AMES SALMONELLA TYPHIMURIUM, Strain/Indicator: TA100, Metabolic Activation: RAT, LIVER, S-9, Method: PREINCUBATION) and “active; positive” (Test System: AMES SALMONELLA TYPHIMURIUM, Strain/Indicator: TA100, Metabolic Activation: RAT, LIVER, S-9, Method: STANDARD PLATE).
With `Cn1cnc2c3cccnc3ccc21`, the mutagenic call runs as follows: under setting [1], “active; positive”; (Test System: AMES SALMONELLA TYPHIMURIUM, Strain/Indicator: TA98, Metabolic Activation: RAT, LIVER, S-9, AROCLOR 1254, Method: PREINCUBATION) “active; positive”; under setting [2], “active; positive”; (Test System: AMES SALMONELLA TYPHIMURIUM, Strain/Indicator: TA100, Metabolic Activation: RAT, LIVER, S-9, AROCLOR 1254, Method: PREINCUBATION) “active; positive”.

These data come from PubChem BioAssay AID1259407 (Chemical Carcinogenesis Research Information System (CCRIS), 2018).
